Data reported in patent publication US6355799B1, “Substituted benzene compounds, process for their preparation, and herbicidal and defoliant compositions containing them” (ISK Americas Incorporated, priority 1997, dated 2002).

Legend:
Assay type in all cases: in vivo
[1] = test system: sicklepod (Cassia obtusifolia, CASOB); assay: Pre-emerge test, greenhouse herbicide activity screening; details: pre-emerge; for Pre-emerge Herbicidal Activity CASOB: phytotoxicity rating 0-100 at 14 days after application; for phytotoxicity rating CASOB: 14 days after application, scale 0-100
Outline: (§1)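 Herbicidal damage is scored 0 (none) to 100 (complete plant death) two weeks after a simulated field spray. Rates span 15–1000 g ai/ha, delivered in acetone at 187 l/ha. For post-emergence treatments, plants have 2–3 leaves and the spray carries 0.25% v/v non-ionic surfactant.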

[2] = test system: green foxtail (Setaria viridis, SETVI); assay: as above; details: pre-emerge; for Pre-emerge Herbicidal Activity SETVI: phytotoxicity rating 0-100 at 14 days after application; for phytotoxicity rating SETVI: 14 days after application, scale 0-100
Outline: as §1

[3] = test system: velvetleaf (Abutilon theophrasti, ABUTH); assay: as above; details: pre-emerge; for Pre-emerge Herbicidal Activity ABUTH: phytotoxicity rating 0-100 at 14 days after application; for phytotoxicity rating ABUTH: 14 days after application, scale 0-100
Outline: as §1

[4] = test system: lambsquarters (Chenopodium album, CHEAL); assay: as above; details: pre-emerge; for Pre-emerge Herbicidal Activity CHEAL: phytotoxicity rating 0-100 at 14 days after application; for phytotoxicity rating CHEAL: 14 days after application, scale 0-100
Outline: as §1

[5] = test system: large crabgrass (Digitaria sanguinalis, DIGSA); assay: as above; details: pre-emerge; for Pre-emerge Herbicidal Activity DIGSA: phytotoxicity rating 0-100 at 14 days after application; for phytotoxicity rating DIGSA: 14 days after application, scale 0-100
Outline: as §1

[6] = test system: barnyardgrass (Echinochloa crus-galli, ECHCG); assay: as above; details: pre-emerge; for Pre-emerge Herbicidal Activity ECHCG: phytotoxicity rating 0-100 at 14 days after application; for phytotoxicity rating ECHCG: 14 days after application, scale 0-100
Outline: as §1

[7] = test system: ivyleaf morningglory (Ipomoea hederacea, IPOHE); assay: as above; details: pre-emerge; for Pre-emerge Herbicidal Activity IPOHE: phytotoxicity rating 0-100 at 14 days after application; for phytotoxicity rating IPOHE: 14 days after application, scale 0-100
Outline: as §1

[8] = test system: redroot pigweed (Amaranthus retroflexus, AMARE); assay: as above; details: pre-emerge; for Pre-emerge Herbicidal Activity AMARE: phytotoxicity rating 0-100 at 14 days after application; for phytotoxicity rating AMARE: 14 days after application, scale 0-100
Outline: (§2)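 Compounds in acetone were track-sprayed at 187 l/ha, 15–1000 g ai/ha, onto sandy loam pots. Pre-emerge seeds were sown one day before spraying, with surface watering afterwards. Post-emerge plants were at the 2–3 leaf stage and sprayed with 0.25% v/v non-ionic surfactant. Injury was rated 0–100 at 14 days.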

[9] = test system: johnsongrass (Sorghum halepense, SORHA); assay: Post-emerge test, greenhouse herbicide activity screening; details: post-emerge; for Post-emerge Herbicidal Activity SORHA: phytotoxicity rating 0-100 at 14 days after application; for SORHA phytotoxicity rating: 14 days after application, rating scale 0-100
Outline: as §2

[10] = test system: sicklepod (Cassia obtusifolia, CASOB); assay: as above; details: post-emerge; for Post-emerge Herbicidal Activity CASOB: phytotoxicity rating 0-100 at 14 days after application; for CASOB phytotoxicity rating: 14 days after application, rating scale 0-100
Outline: as §2

[11] = test system: green foxtail (Setaria viridis, SETVI); assay: as above; details: post-emerge; for Post-emerge Herbicidal Activity SETVI: phytotoxicity rating 0-100 at 14 days after application; for SETVI phytotoxicity rating: 14 days after application, rating scale 0-100
Outline: as §2

[12] = test system: velvetleaf (Abutilon theophrasti, ABUTH); assay: as above; details: post-emerge; for Post-emerge Herbicidal Activity ABUTH: phytotoxicity rating 0-100 at 14 days after application; for ABUTH phytotoxicity rating: 14 days after application, rating scale 0-100
Outline: as §2

[13] = test system: lambsquarters (Chenopodium album, CHEAL); assay: as above; details: post-emerge; for Post-emerge Herbicidal Activity CHEAL: phytotoxicity rating 0-100 at 14 days after application; for CHEAL phytotoxicity rating: 14 days after application, rating scale 0-100
Outline: as §2

[14] = test system: redroot pigweed (Amaranthus retroflexus, AMARE); assay: as above; details: post-emerge; for Post-emerge Herbicidal Activity AMARE: phytotoxicity rating 0-100 at 14 days after application; for AMARE phytotoxicity rating: 14 days after application, rating scale 0-100
Outline: as §2

[15] = test system: large crabgrass (Digitaria sanguinalis, DIGSA); assay: as above; details: post-emerge; for Post-emerge Herbicidal Activity DIGSA: phytotoxicity rating 0-100 at 14 days after application; for DIGSA phytotoxicity rating: 14 days after application, rating scale 0-100
Outline: as §2

[16] = test system: barnyardgrass (Echinochloa crus-galli, ECHCG); assay: as above; details: post-emerge; for Post-emerge Herbicidal Activity ECHCG: phytotoxicity rating 0-100 at 14 days after application; for ECHCG phytotoxicity rating: 14 days after application, rating scale 0-100
Outline: as §2

[17] = test system: ivyleaf morningglory (Ipomoea hederacea, IPOHE); assay: as above; details: post-emerge; for Post-emerge Herbicidal Activity IPOHE: phytotoxicity rating 0-100 at 14 days after application; for IPOHE phytotoxicity rating: 14 days after application, rating scale 0-100
Outline: as §2

[18] = test system: field corn (Zea mays L., var. Dekalb 535, CORN); assay: Post-emerge test, crop safety; details: post-emerge; for Post-emerge Herbicidal Activity CORN: crop damage rating 0-100 at 14 days after application; for CORN phytotoxicity rating (crop damage): 14 days after application, rating scale 0-100
Outline: as §1

[19] = test system: upland rice (Oryza sp., var. Tebonnet, RICE); assay: Post-emerge test, crop safety; details: post-emerge; for Post-emerge Herbicidal Activity RICE: crop damage rating 0-100 at 14 days after application; for RICE phytotoxicity rating (crop damage): 14 days after application, rating scale 0-100
Outline: as §1

[20] = test system: field corn (Zea mays L., var. Dekalb 535, CORN); assay: Pre-emerge test, crop safety; details: pre-emerge; for Pre-emerge Herbicidal Activity CORN: crop damage, phytotoxicity rating 0-100 at 14 days after application; for phytotoxicity rating CORN (crop damage): 14 days after application, scale 0-100
Outline: (§3)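 Rating: 0–100 visual injury, 14 DAA. Application: acetone, 187 l/ha, 15–1000 g ai/ha, flat-fan track sprayer with nozzle 40–45 cm above soil or canopy. Post-emerge runs used 0.25% v/v surfactant on 2–3 leaf plants.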

[21] = test system: upland rice (Oryza sp., var. Tebonnet, RICE); assay: Pre-emerge test, crop safety; details: pre-emerge; for Pre-emerge Herbicidal Activity RICE: crop damage, phytotoxicity rating 0-100 at 14 days after application; for phytotoxicity rating RICE (crop damage): 14 days after application, scale 0-100
Outline: as §3

COc1cccc(COC(=O)Nc2c(C)c(Cl)cc(F)c2-n2c(=O)cc(C(F)(F)F)n(C)c2=O)c1 [4-65]
Pre-emerge Herbicidal Activity CASOB ([1]; rate 63 g ai/ha): 80 | Pre-emerge Herbicidal Activity CASOB ([1]; rate 250 g ai/ha): 90 | Pre-emerge Herbicidal Activity SETVI ([2]; rate 63 g ai/ha): 100 | Pre-emerge Herbicidal Activity SETVI ([2]; rate 250 g ai/ha): 100 | Pre-emerge Herbicidal Activity ABUTH ([3]; rate 63 g ai/ha): 100 | Pre-emerge Herbicidal Activity ABUTH ([3]; rate 250 g ai/ha): 100 | Pre-emerge Herbicidal Activity CHEAL ([4]; rate 63 g ai/ha): 100 | Pre-emerge Herbicidal Activity CHEAL ([4]; rate 250 g ai/ha): 100 | Pre-emerge Herbicidal Activity DIGSA ([5]; rate 63 g ai/ha): 100 | Pre-emerge Herbicidal Activity DIGSA ([5]; rate 250 g ai/ha): 100 | Pre-emerge Herbicidal Activity ECHCG ([6]; rate 63 g ai/ha): 80 | Pre-emerge Herbicidal Activity ECHCG ([6]; rate 250 g ai/ha): 90 | Pre-emerge Herbicidal Activity IPOHE ([7]; rate 63 g ai/ha): 90 | Pre-emerge Herbicidal Activity IPOHE ([7]; rate 250 g ai/ha): 100 | Pre-emerge Herbicidal Activity AMARE ([8]; rate 63 g ai/ha): 100 | Pre-emerge Herbicidal Activity AMARE ([8]; rate 250 g ai/ha): 100 | Post-emerge Herbicidal Activity SORHA ([9]; 63 g ai/ha): 70 | Post-emerge Herbicidal Activity SORHA ([9]; 250 g ai/ha): 80 | Post-emerge Herbicidal Activity CASOB ([10]; 63 g ai/ha): 100 | Post-emerge Herbicidal Activity CASOB ([10]; 250 g ai/ha): 100 | Post-emerge Herbicidal Activity SETVI ([11]; 63 g ai/ha): 100 | Post-emerge Herbicidal Activity SETVI ([11]; 250 g ai/ha): 100 | Post-emerge Herbicidal Activity ABUTH ([12]; 63 g ai/ha): 100 | Post-emerge Herbicidal Activity ABUTH ([12]; 250 g ai/ha): 100 | Post-emerge Herbicidal Activity CHEAL ([13]; 63 g ai/ha): 100 | Post-emerge Herbicidal Activity CHEAL ([13]; 250 g ai/ha): 100 | Post-emerge Herbicidal Activity AMARE ([14]; 63 g ai/ha): 100 | Post-emerge Herbicidal Activity AMARE ([14]; 250 g ai/ha): 100 | Post-emerge Herbicidal Activity DIGSA ([15]; 63 g ai/ha): 60 | Post-emerge Herbicidal Activity DIGSA ([15]; 250 g ai/ha): 80 | Post-emerge Herbicidal Activity ECHCG ([16]; 63 g ai/ha): 60 | Post-emerge Herbicidal Activity ECHCG ([16]; 250 g ai/ha): 70 | Post-emerge Herbicidal Activity IPOHE ([17]; 63 g ai/ha): 100 | Post-emerge Herbicidal Activity IPOHE ([17]; 250 g ai/ha): 100 | Post-emerge Herbicidal Activity CORN ([18]; 63 g ai/ha): 80 | Post-emerge Herbicidal Activity CORN ([18]; 250 g ai/ha): 90 | Post-emerge Herbicidal Activity RICE ([19]; 63 g ai/ha): 70 | Post-emerge Herbicidal Activity RICE ([19]; 250 g ai/ha): 80 | Pre-emerge Herbicidal Activity CORN ([20]; rate 63 g ai/ha): 55 | Pre-emerge Herbicidal Activity CORN ([20]; rate 250 g ai/ha): 75 | Pre-emerge Herbicidal Activity RICE ([21]; rate 63 g ai/ha): 65 | Pre-emerge Herbicidal Activity RICE ([21]; rate 250 g ai/ha): 90

COc1c(Cl)cc(F)c(-n2c(=O)cc(C(F)(F)F)n(C)c2=O)c1NC(=O)C=Cc1ccccc1[N+](=O)[O-] [2-126]
phytotoxicity rating CASOB ([1]; 63 g ai/ha): 10 | phytotoxicity rating CASOB ([1]; 250 g ai/ha): 70 | phytotoxicity rating SETVI ([2]; 63 g ai/ha): 40 | phytotoxicity rating SETVI ([2]; 250 g ai/ha): 100 | phytotoxicity rating ABUTH ([3]; 63 g ai/ha): 100 | phytotoxicity rating ABUTH ([3]; 250 g ai/ha): 100 | phytotoxicity rating CHEAL ([4]; 63 g ai/ha): 100 | phytotoxicity rating CHEAL ([4]; 250 g ai/ha): 100 | phytotoxicity rating DIGSA ([5]; 63 g ai/ha): 30 | phytotoxicity rating DIGSA ([5]; 250 g ai/ha): 90 | phytotoxicity rating ECHCG ([6]; 63 g ai/ha): 10 | phytotoxicity rating ECHCG ([6]; 250 g ai/ha): 40 | phytotoxicity rating IPOHE ([7]; 63 g ai/ha): 10 | phytotoxicity rating IPOHE ([7]; 250 g ai/ha): 90 | phytotoxicity rating AMARE ([8]; 63 g ai/ha): 100 | phytotoxicity rating AMARE ([8]; 250 g ai/ha): 100 | SORHA phytotoxicity rating ([9]; 63 g ai/ha): 0 | SORHA phytotoxicity rating ([9]; 250 g ai/ha): 10 | CASOB phytotoxicity rating ([10]; 63 g ai/ha): 60 | CASOB phytotoxicity rating ([10]; 250 g ai/ha): 60 | SETVI phytotoxicity rating ([11]; 63 g ai/ha): 30 | SETVI phytotoxicity rating ([11]; 250 g ai/ha): 40 | ABUTH phytotoxicity rating ([12]; 63 g ai/ha): 90 | ABUTH phytotoxicity rating ([12]; 250 g ai/ha): 100 | CHEAL phytotoxicity rating ([13]; 63 g ai/ha): 80 | CHEAL phytotoxicity rating ([13]; 250 g ai/ha): 95 | AMARE phytotoxicity rating ([14]; 63 g ai/ha): 80 | AMARE phytotoxicity rating ([14]; 250 g ai/ha): 100 | DIGSA phytotoxicity rating ([15]; 63 g ai/ha): 20 | DIGSA phytotoxicity rating ([15]; 250 g ai/ha): 30 | ECHCG phytotoxicity rating ([16]; 63 g ai/ha): 0 | ECHCG phytotoxicity rating ([16]; 250 g ai/ha): 10 | IPOHE phytotoxicity rating ([17]; 63 g ai/ha): 80 | IPOHE phytotoxicity rating ([17]; 250 g ai/ha): 100 | CORN phytotoxicity rating (crop damage) ([18]; 63 g ai/ha): 10 | CORN phytotoxicity rating (crop damage) ([18]; 250 g ai/ha): 10 | RICE phytotoxicity rating (crop damage) ([19]; 63 g ai/ha): 0 | RICE phytotoxicity rating (crop damage) ([19]; 250 g ai/ha): 50 | phytotoxicity rating CORN (crop damage) ([20]; 63 g ai/ha): 0 | phytotoxicity rating CORN (crop damage) ([20]; 250 g ai/ha): 5 | phytotoxicity rating RICE (crop damage) ([21]; 63 g ai/ha): 10 | phytotoxicity rating RICE (crop damage) ([21]; 250 g ai/ha): 60
